The text below walks through data of patent US7906675B2, “Compounds for the treatment of metabolic disorders” (Wellstat Therapeutics Corporation, priority 2003, dated 2011).

In this test the test system is C57BL/Ksola (db/db) mice. Nature of the test: Antidiabetic effects in db/db diabetic mouse model. In kind it is in vivo. The note with it: serum, 60 mg/kg daily oral for 17 days. The source says: C57BL/Ksola (db/db) mice have a defect in leptin signaling, leading to hyperphagia, obesity, hypertriglyceridemia, and diabetes. Moreover, unlike ob/ob mice on a C57BL/6J background, db/db mice on a C57BLKS background undergo failure of their insulin-producing pancreatic islet cells, resulting in progression from hyperinsulinemia (associated with peripheral insulin resistance) to hypoinsulinemic diabetes.
Male obese (db/db homozygote) C57BL/Ksola mice approximately 8 weeks of age, were obtained from Jackson Labs (Bar Harbor, Me.) and sorted into groups of 7 animals each animals such that the body weights (40-45 g) and serum glucose levels (≧300 mg/dl in fed state) were similar between groups. A minimum of 7 days was allowed for adaptation after arrival. All animals were maintained under controlled temperature (23° C.), relative humidity (50±5%) and light (7:00-19:00), and allowed free access to standard chow (Formulab Diet 5008, Quality Lab Products, Elkridge, Md.) and water.
Groups of mice received daily oral doses of vehicle (1% hydroxypropylmethylcellulose) or Compound CS (60 mg/kg) for 17 days. At the end of the treatment period, blood samples were collected and serum glucose, triglycerides, and free fatty acids were measured.

In the case of `Cc1cccc(C)c1CSc1ccc(C(=O)CCC(=O)O)cc1` [Compound CS, 4-(4-[(2,6-Dimethylbenzyl)-thio]-phenyl)-4-oxobutyric acid], the “Free Fatty Acids” value was found to be 2034 ± 195 µM and the Triglycerides is reported as 150 ± 10 mg/dL. For the same compound, where the note is “±SEM”, the Glucose stood at 593 ± 77 mg/dL.
